Experimental data from the NIST ThermoML archive (doi:10.1016/j.tca.2016.03.003).
Numbers after ± are expanded uncertainties.

Key:
[1] = Molar enthalpy of transition or fusion; details: DSC
[2] = DSC

SMILES | Molar enthalpy of transition or fusion ([1]; Crystal 1) [kcal/mol] | Molar enthalpy of transition or fusion ([1]; Crystal 2) [kcal/mol] | Triple point temperature ([2]; Crystal 1) [K] | Triple point temperature ([2]; Crystal 2) [K] | Triple point temperature ([2]; Crystal 3) [K] | Triple point temperature ([2]; Crystal 4) [K] | Triple point temperature ([2]; Metastable crystal) [K]
CC(C)(C)CO [2,2-dimethyl-1-propanol] | 0.937 ± 0.115 | 0.992 ± 0.115 | 329.2 ± 1.2 | 237.5 ± 1.2 |  |  | 
CC(C)(C)Cl [2-chloro-2-methylpropane] |  |  | 244.4 ± 1.2 | 219.5 ± 1.2 | 217.7 ± 1.2 | 184.8 ± 1.2 | 
ClC(Cl)(Cl)Cl [tetrachloromethane] |  |  | 250.4 ± 1.2 | 226.1 ± 1.2 |  |  | 245.2 ± 1.2
